Laboratory results as given in patent publication US11026943B2, “Aminoquinoline derivatives and uses thereof” (UNIVERSITY OF DELHI, priority 2012, dated 2021).

Tested on: not listed separately
Experiment: Solubility (solvent listed in compound tables)
Format: physicochemical
Conditions: solvent named, Table 3
For `Clc1ccc2c(NCCNc3nc(Cl)cc(Cl)n3)ccnc2c1` [SM 695B], the SOLUBILITY was “DMSO”.
With `Clc1ccc2c(NCCNc3cc(Cl)nc(N4CCOCC4)n3)ccnc2c1` [SM 696] the SOLUBILITY was “DMSO”.
With `Clc1ccc2c(NCCNc3cc(Cl)nc(N4CCCCC4)n3)ccnc2c1` [SM 697] the SOLUBILITY was “DMSO”.
With `Clc1ccc2c(NCCNc3nc(Cl)cc(N4CCCCC4)n3)ccnc2c1` [SM 699] the SOLUBILITY was “DMSO”.
With `Clc1ccc2c(NCCNc3nc(Cl)cc(N4CCOCC4)n3)ccnc2c1` [SM 700] the SOLUBILITY was “DMSO”.
For `CN1CCN(c2nc(Cl)cc(NCCNc3ccnc4cc(Cl)ccc34)n2)CC1` [SM 701], the SOLUBILITY was “DMSO”.
With `CCN1CCN(c2nc(Cl)cc(NCCNc3ccnc4cc(Cl)ccc34)n2)CC1` [SM 702] the SOLUBILITY was “DMSO”.
In the case of `CN1CCN(c2cc(Cl)nc(NCCNc3ccnc4cc(Cl)ccc34)n2)CC1` [SM 703], the SOLUBILITY is reported as “DMSO”.
In the case of `CCN1CCN(c2cc(Cl)nc(NCCNc3ccnc4cc(Cl)ccc34)n2)CC1` [SM 704], the SOLUBILITY is reported as “DMSO”.
With `Clc1ccc2c(NCCCNc3cc(Cl)nc(Cl)n3)ccnc2c1` [SM 710A] the SOLUBILITY was “DMSO”.
With `Clc1ccc2c(NCCCNc3nc(Cl)cc(Cl)n3)ccnc2c1` [SM 710B] the SOLUBILITY was “DMSO”.
For `Clc1ccc2c(NCCCNc3cc(Cl)nc(N4CCCCC4)n3)ccnc2c1` [SM 711], the SOLUBILITY was “DMSO”.
For `Clc1ccc2c(NCCCNc3cc(Cl)nc(N4CCOCC4)n3)ccnc2c1` [SM 712], the SOLUBILITY was “DMSO”.
For `CN1CCN(c2nc(Cl)cc(NCCCNc3ccnc4cc(Cl)ccc34)n2)CC1` [SM 713], the SOLUBILITY was “DMSO”.
With `CCN1CCN(c2nc(Cl)cc(NCCCNc3ccnc4cc(Cl)ccc34)n2)CC1` [SM 714] the SOLUBILITY was “DMSO”.
With `Clc1ccc2c(NCCCNc3nc(Cl)cc(N4CCCCC4)n3)ccnc2c1` [SM 715] the SOLUBILITY was “DMSO”.
For `Clc1ccc2c(NCCCNc3nc(Cl)cc(N4CCOCC4)n3)ccnc2c1` [SM 716], the SOLUBILITY was “DMSO”.
With `CN1CCN(c2cc(Cl)nc(NCCCNc3ccnc4cc(Cl)ccc34)n2)CC1` [SM 717] the SOLUBILITY was “DMSO”.
With `CCN1CCN(c2cc(Cl)nc(NCCCNc3ccnc4cc(Cl)ccc34)n2)CC1` [SM 718] the SOLUBILITY was “DMSO”.
For `Clc1ccc2c(NCCCNc3ccnc(Cl)n3)ccnc2c1` [SM 719A], the SOLUBILITY was “DMSO”.
With `Clc1ccc2c(NCCCNc3nccc(Cl)n3)ccnc2c1` [SM 719B] the SOLUBILITY was “DMSO”.
With `Clc1ccc2c(NCCCNc3ccnc(N4CCCCC4)n3)ccnc2c1` [SM 720] the SOLUBILITY was “DMSO”.
For `Clc1ccc2c(NCCCNc3ccnc(N4CCOCC4)n3)ccnc2c1` [SM 721], the SOLUBILITY was “DMSO”.
With `CN1CCN(c2nccc(NCCCNc3ccnc4cc(Cl)ccc34)n2)CC1` [SM 722] the SOLUBILITY was “DMSO”.
For `CCN1CCN(c2nccc(NCCCNc3ccnc4cc(Cl)ccc34)n2)CC1` [SM 723], the SOLUBILITY was “DMSO”.
For `Clc1ccc2c(NCCCNc3nccc(N4CCCCC4)n3)ccnc2c1` [SM 724], the SOLUBILITY was “DMSO”.
In the case of `Clc1ccc2c(NCCCNc3nccc(N4CCOCC4)n3)ccnc2c1` [SM 725], the SOLUBILITY is reported as “DMSO”.
For `CN1CCN(c2ccnc(NCCCNc3ccnc4cc(Cl)ccc34)n2)CC1` [SM 726], the SOLUBILITY was “DMSO”.
In the case of `CCN1CCN(c2ccnc(NCCCNc3ccnc4cc(Cl)ccc34)n2)CC1` [SM 727], the SOLUBILITY is reported as “DMSO”.
For `Clc1ccc2c(NCCNc3ccnc(Cl)n3)ccnc2c1` [SM 728A], the SOLUBILITY was “DMSO”.
For `Clc1ccc2c(NCCNc3nccc(Cl)n3)ccnc2c1` [SM 728B], the SOLUBILITY was “DMSO”.
In the case of `Clc1ccc2c(NCCNc3ccnc(N4CCCCC4)n3)ccnc2c1` [SM 730], the SOLUBILITY is reported as “DMSO”.
With `Clc1ccc2c(NCCNc3ccnc(N4CCOCC4)n3)ccnc2c1` [SM 731] the SOLUBILITY was “DMSO”.
With `Clc1ccc2c(NCCNc3nccc(N4CCCCC4)n3)ccnc2c1` [SM 732] the SOLUBILITY was “DMSO”.
In the case of `Clc1ccc2c(NCCNc3nccc(N4CCOCC4)n3)ccnc2c1` [SM 733], the SOLUBILITY is reported as “DMSO”.
With `CN1CCN(c2ccnc(NCCNc3ccnc4cc(Cl)ccc34)n2)CC1` [SM 734] the SOLUBILITY was “DMSO”.

Tested on: CQ-sensitive (D6 clone) strain of P. falciparum
Experiment: In vitro antimalarial activity, CQ-sensitive strain
Format: cell-based, Plasmodium falciparum
Conditions: Plasmodium falciparum, D6, read-out: P. falciparum (D6 Clone) IC50 (μM)
Source text: (§1) Med. Chem. 2005, 13, 4458; Khan, I. A. Lipids 2004, 37, 169].
`CCN(CC)CCCC(C)Nc1ccnc2cc(Cl)ccc12` (stereo not drawn) [Chloroquine, chloroquine, reference compound] gave an IC50 of 0.048 µM.

Same assay, conditions: Plasmodium falciparum; CQ-sensitive D6 clone; read-out: P. falciparum (D6 Clone) IC50
Molecule `C[C@@H]1CC[C@H]2[C@@H](C)C(=O)O[C@@H]3O[C@@]4(C)CC[C@@H]1[C@]32OO4` [Artemisinine, reference compound] has an IC50 of 0.012 µM.

Same assay, conditions: selectivity index = IC50 cytotoxicity to Vero cells / IC50 antimalarial, D6 clone
For `C[C@@H]1CC[C@H]2[C@@H](C)C(=O)O[C@@H]3O[C@@]4(C)CC[C@@H]1[C@]32OO4` [Artemisinine, reference compound], the “P. falciparum (D6 Clone) S.I.” value was 5000.
In the case of `CCN(CC)CCCC(C)Nc1ccnc2cc(Cl)ccc12` (stereo not drawn) [Chloroquine, chloroquine, reference compound], the “P. falciparum (D6 Clone) S.I.” value is reported as 1250.

Tested on: parasitemia
Experiment: In-vivo antimalarial activity in mice
Conditions: day 5; 100 mg/kg for 3 days post infection; standard drug
`CCN(CC)CCCC(C)Nc1ccnc2cc(Cl)ccc12` (stereo not drawn) [Chloroquine, chloroquine, reference compound] gave a parasitemia suppression of 100%.

Same assay, conditions: mice, PO, 100 mg/kg × 3 days post-infection
In the case of `CCN(CC)CCCC(C)Nc1ccnc2cc(Cl)ccc12` (stereo not drawn) [Chloroquine, chloroquine, reference compound], the “Cure (number of mice without parasitemia till day 28 post-infection)” value is reported as 0/5 and the “MST (mean survival time)” value is reported as 28 days.

Same assay, conditions: mice, PO, 100 mg/kg × 3 days post-infection, day 5
With `CCN(CC)CCCC(C)Nc1ccnc2cc(Cl)ccc12` (stereo not drawn) [Chloroquine, chloroquine, reference compound] the “% Parasitemia suppression Day 5” value was 100.00%.

Same assay, conditions: mice, PO, 100 mg/kg × 3 days post-infection, day 7
For `CCN(CC)CCCC(C)Nc1ccnc2cc(Cl)ccc12` (stereo not drawn) [Chloroquine, chloroquine, reference compound], the “% Parasitemia suppression Day 7” value was 100.00%.

Same assay, conditions: mice, PO, 100 mg/kg × 3 days post-infection, day 28
In the case of `CCN(CC)CCCC(C)Nc1ccnc2cc(Cl)ccc12` (stereo not drawn) [Chloroquine, chloroquine, reference compound], the “Survival (animals that survived day 28/total animals in group)” value is reported as 5/5.

Same assay, conditions: mice, PO, 100 mg/kg × 3 days post-infection, per animal
For `CCN(CC)CCCC(C)Nc1ccnc2cc(Cl)ccc12` (stereo not drawn) [Chloroquine, chloroquine, reference compound], the “Day of Death” value was 28/28/28/28/28.

Tested on: CQ-resistant (W2 clone) strain of P. falciparum
Experiment: In vitro antimalarial activity, CQ-resistant strain
Format: cell-based, Plasmodium falciparum
Conditions: Plasmodium falciparum, W2, read-out: P. falciparum (W2 Clone) IC50 (μM)
Source text: as §1
`CCN(CC)CCCC(C)Nc1ccnc2cc(Cl)ccc12` (stereo not drawn) [Chloroquine, chloroquine, reference compound] gave an IC50 of 0.43 µM.

Same assay, conditions: Plasmodium falciparum; CQ-resistant W2 clone; read-out: P. falciparum (W2 Clone) IC50
Molecule `C[C@@H]1CC[C@H]2[C@@H](C)C(=O)O[C@@H]3O[C@@]4(C)CC[C@@H]1[C@]32OO4` [Artemisinine, reference compound] has an IC50 of 0.012 µM.

Same assay, conditions: selectivity index = IC50 cytotoxicity to Vero cells / IC50 antimalarial, W2 clone
In the case of `C[C@@H]1CC[C@H]2[C@@H](C)C(=O)O[C@@H]3O[C@@]4(C)CC[C@@H]1[C@]32OO4` [Artemisinine, reference compound], the “P. falciparum (W2 Clone) S.I.” value is reported as 5000.
In the case of `CCN(CC)CCCC(C)Nc1ccnc2cc(Cl)ccc12` (stereo not drawn) [Chloroquine, chloroquine, reference compound], the “P. falciparum (W2 Clone) S.I.” value is reported as 140.
